The results in this text go back to patent US11420977B2, “Late SV40 (LSF) inhibitors” (Trustees of Boston University, priority 2018, dated 2022).

Assay type in all cases: cell-based
One test concerns SNU-423 cells. In words: MTS cell proliferation assay, SNU-423. The following applies: Homo sapiens, 120 hrs incubation. The method, then: (§1) Cell lines and culture conditions: Human colon cancer cells Caco-2, HT29 and HCT15, human pancreatic cancer cells BxPC3, CFPAC-1, and CAPAN-2, liver cancer cells SNU423 and kidney cells HEK293, were obtained from American Type Culture Collection (Rockville, USA). HeLa, DLD1, U937, THP-1, and NIH3T3 cells were obtained from ATCC. Huh7 cells were obtained from (Japanese Cancer Resources Bank). HeLa cells, Huh7, DLD1 and NIH-3T3 cells were cultured in DMEM (Dulbecco's modification of Eagle's Medium; Corning) supplemented with 10% Fetal Bovine Serum (FBS; Invitrogen) and 10% Fetal Calf Serum (FCS; Atlanta Biologicals) respectively. U937, BxPC3, HCT15, SNU423 and THP-1 cells were grown in RPMI-1640 (Roswell Park Memorial Institute; Corning) supplemented with 10% Fetal Bovine Serum (FBS; Invitrogen). CFPAC-1 cells were cultured in Iscove's Modified Dulbecco's Medium (ATCC) supplemented with 10% FBS. CAPAN-2 and HT29 cells were cultured in McCoy's 5a medium supplemented with 10% FBS. Caco2 and HEK293 cells were grown in Eagle's Minimum Essential Medium (ATCC) with final 20% FBS concentration. All cells were maintained at 37° C. in 5% CO2 at constant 70% humidity.
(§2) MTS cell proliferation assay: Cells were detached from the plates using trypsin (0.25% for 3 mins, ATCC) and counted using a hemocytometer and were plated at 3000-1500 cells per well, in a 96-well format. The cells were seeded in the inner wells of 96 well plates, and media was added to the outer wells (blank). For NIH-3T3, 1500 cells were seeded in the inner wells of 96-well plates, and after 20 hours cells were treated with compound or DMSO (vehicle control) at appropriate concentrations (DMSO at final concentration of 1%). For other adherent cells 3000 HeLa, BxPC3, CFPAC-1, CAPAN-2, HEK293, HCT15, HT29, CaCo2, DLD1, Huh7 or SNU423 cells were seeded in in each well approximately 20 hrs prior to the treatment. For U937 and THP-1 suspension cells, 2500 cells were added to the wells of a 96-well plate on the day of treatment. After a 72-hour (or 120 hrs for BxPC3, CAPAN-2, SNU423) incubation with compound or vehicle, cell growth was assessed via the Promega CellTiter 96® AQueous One Solution Cell Proliferation Assay, a colorimetric method to determine the number of viable cells. 20 μL of the CellTiter 96® AQueous One Solution Reagent was added directly into cultured wells and incubated for approximately one hour, after which the absorbance at 490 nm was read with a 96-well plate reader (Opys MR Microplate Reader). GI50 values were determined from plots of the percentage of compound-treated cell growth to vehicle cell growth vs. compound concentration (GraphPad Prism; non-linear regression, log inhibitor verse normalized response with variable slope).
In general terms: Tetrazolium assays rely on reduction of a dye to a coloured formazan, in cell work by metabolically active cells.

The test system of a further test is CaCo-2 cells. Kind of test: MTS cell proliferation assay, CaCo-2. The following applies: Homo sapiens, 72-hour incubation. The procedure:
(§3) Cell lines and culture conditions: Human colon cancer cells Caco-2, HT29 and HCT15, human pancreatic cancer cells BxPC3, CFPAC-1, and CAPAN-2, liver cancer cells SNU423 and kidney cells HEK293, were obtained from American Type Culture Collection (Rockville, USA). HeLa, DLD1, U937, THP-1, and NIH3T3 cells were obtained from ATCC. Huh7 cells were obtained from (Japanese Cancer Resources Bank). HeLa cells, Huh7, DLD1 and NIH-3T3 cells were cultured in DMEM (Dulbecco's modification of Eagle's Medium; Corning) supplemented with 10% Fetal Bovine Serum (FBS; Invitrogen) and 10% Fetal Calf Serum (FCS; Atlanta Biologicals) respectively. […]
(§4) MTS cell proliferation assay: Cells were detached from the plates using trypsin (0.25% for 3 mins, ATCC) and counted using a hemocytometer and were plated at 3000-1500 cells per well, in a 96-well format. […] After a 72-hour (or 120 hrs for BxPC3, CAPAN-2, SNU423) incubation with compound or vehicle, cell growth was assessed via the Promega CellTiter 96® AQueous One Solution Cell Proliferation Assay, a colorimetric method to determine the number of viable cells. 20 μL of the CellTiter 96® AQueous One Solution Reagent was added directly into cultured wells and incubated for approximately one hour, after which the absorbance at 490 nm was read with a 96-well plate reader (Opys MR Microplate Reader). […]

A further test deals with HCT-15 cells. In words: MTS cell proliferation assay, HCT-15. Conditions: Homo sapiens, 72-hour incubation. The method, then:
as §3, §4

For another test, the system named is HT-29 cells. Kind of test: MTS cell proliferation assay, HT-29. Conditions: Homo sapiens, 72-hour incubation. The method, then: as §3, §4
The test system of another test is HuH7 cells. In words: MTS cell proliferation assay, HuH7. The following applies: Homo sapiens, Huh-7, 72-hour incubation. The procedure: as §1, §2
A further test relates to NIH 3T3 cells. Kind of test: MTS cell proliferation assay, NIH 3T3. Conditions: Mus musculus, NIH3T3, 72-hour incubation. The method, then:
as §1, with “All cells were maintained at 37° C. in 5% CO2 at constant 70% humidity.” left out
(§5) MTS cell proliferation assay: Cells were detached from the plates using trypsin (0.25% for 3 mins, ATCC) and counted using a hemocytometer and were plated at 3000-1500 cells per well, in a 96-well format. […] After a 72-hour (or 120 hrs for BxPC3, CAPAN-2, SNU423) incubation with compound or vehicle, cell growth was assessed via the Promega CellTiter 96® AQueous One Solution Cell Proliferation Assay, a colorimetric method to determine the number of viable cells. 20 μL of the CellTiter 96® AQueous One Solution Reagent was added directly into cultured wells and incubated for approximately one hour, after which the absorbance at 490 nm was read with a 96-well plate reader (Opys MR Microplate Reader). GI50 values were determined from plots of the percentage of compound-treated cell growth to vehicle cell growth vs. compound concentration (GraphPad Prism; non-linear regression, log inhibitor verse normalized response with variable slope).

The next test has as its system HeLa cells. Kind of test: MTS cell proliferation assay, HeLa. Conditions: Homo sapiens, 72-hour incubation. The method, then: as §1, with “All cells were maintained at 37° C. in 5% CO2 at constant 70% humidity.” left out
as §5

Molecules are shown by their SMILES.

Usually GI50 stands for the concentration giving 50% growth inhibition. A higher GI50 goes with less potent growth inhibition. `CCOc1cc(N(C)C)ccc1C1CC(=O)Nc2cc3c(cc21)OCCO3` (racemic) [FQI-37, 9-[4-(dimethylamino)-2-ethoxy-phenyl]-3,6,8,9-tetrahydro-2H-[1,4]dioxino[2,3-g]quinolin-7-one]: the GI50 in the test with SNU-423 cells came out at 141 nM; with CaCo-2 cells it was 141 nM; in the test on HCT-15 cells, 18 nM; in the test on HT-29 cells, 398 nM; with HuH7 cells it was 70 nM.
`CCOc1cc(N(C)C)ccc1[C@@H]1CC(=O)Nc2cc3c(cc21)OCO3` [(R)-FQI-34]: the GI50 in the test on SNU-423 cells turned out to be 251 nM; in the test on NIH 3T3 cells, 5800 nM; in the test with HuH7 cells, 158 nM; with HeLa cells it was 300 nM.
`CCOc1cc(N(C)C)ccc1[C@@H]1CC(=O)Nc2cc3c(cc21)OCCO3` [(R)-FQI-37]: the values for the GI50 with SNU-423 cells and with HuH7 cells were 147 nM and 126 nM, respectively.
As to `CCOc1cc(N(C)C)ccc1[C@H]1CC(=O)Nc2cc3c(cc21)OCO3` [(S)-FQI-34], the GI50 was found to be 50 nM in the test with SNU-423 cells, 590 nM in the test on NIH 3T3 cells, 56 nM with HuH7 cells and 3800 nM in the test with HeLa cells.
On to `CCOc1cc(N(C)C)ccc1[C@H]1CC(=O)Nc2cc3c(cc21)OCCO3` [(S)-FQI-37], for which the results for the GI50 in the test with SNU-423 cells and with HuH7 cells were 60 nM and 70 nM, respectively.
